Results published in patent publication US20080200531A1, “CDKI pathway inhibitors as inhibitors of tumor cell growth” (priority 2006, published 2008).

Key:
[1] = tested on: p21-induced CMV-GFP expression (CDKI pathway); assay: CMV-GFP reporter assay for p21-induced transcription (HTS) in HT1080 p21-9 derived reporter cell line; assay type: cell-based, human; settings: for anti-CDKI pathway activity in the reporter assay (induction of CMV-GFP expression in response to p21): libraries screened at 20 μM
Text: As described in a co-pending patent application PCT/US06/0 1046, we have developed a high-throughput screening (HTS) procedure for compounds inhibiting the CDKI pathway. This procedure utilizes a highly sensitive reporter cell line that was generated by infecting HT1080 p21-9 cells, a derivative of HT1080 fibrosarcoma cells that express p21 from a promoter induced by a physiologically neutral β-galactoside IPTG (isopropyl-β-thio-galactoside) with a lentiviral vector that expresses Green Fluorescent Protein (GFP) from the CDKI-inducible cytomegalovirus (CMV) promoter, followed by subcloning of GFP positive cells and monitoring the induction of GFP expression by IPTG. A cell line showing approximately 10-fold increase in GFP upon the addition of IPTG was used for HTS in a 96-well format.
This reporter line was used to screen two diversified small-molecule libraries developed by ChemBridge Corp., Microformat 04 and DiverSet, each comprising 50,000 compounds. These diversified libraries were rationally chosen by ChemBridge by quantifying pharmacophores in a collection of >500,000 drug-like molecules, using a version of Chem-X software to maximize the pharmacophore diversity. The Microformat 04 collection was designed to complement the chemical space covered by the older DiverSet library. ChemBridge libraries have been successfully used by numerous industrial and academic researchers, in a variety of cell-based and cell-free assays. The ChemBridge libraries were screened at 20 μM concentration, a conventional concentration for cell-based screening of these libraries. 62 of 100,000 ChemBridge compounds were identified by HTS and verified as inhibiting the induction of CMV-GFP expression in response to p21. This low hit rate (0.06%) indicates a high selectivity of our assay.
In this experiment, HT1080 p21-9 cells that express firefly luciferase from a CDKI-responsive promoter of cellular NK4 gene were cultured with IPTG for two days, which is sufficient for near-maximal induction of NK4 (Poole et al., supra).

[2] = tested on: CDKI-responsive endogenous genes induced by p21; assay: Q-PCR of CDKI-responsive endogenous genes, HT1080 cells with IPTG-inducible p21; assay type: cell-based, human; settings: 10 μM SNX9, 20 μM SNX9-1; normalized to β-actin
Method: For this purpose, we developed real-time RT-PCR (Q-PCR) assays for measuring RNA levels of eleven CDKI-responsive genes. This assay uses a 96-well TurboCapture RNA extraction kit (Qiagen), in which oligo(dT) is covalently bound to the surface of the wells to allow mRNA isolation from cell lysate and cDNA synthesis in the same wells. 5 units/μl of SuperScript III reverse transcriptase (Invitrogen) was added to the wells for 1 hr for cDNA synthesis at 50° C., and 2 μl of the resulting cDNA was then used for Q-PCR analysis using SYBR Green PCR Master Mix (ABI) with ABI 7900HT Q-PCR machine.
This effect argues that the molecular target of these compounds is not a specific CDKI but rather a common downstream mediator of the transcription-inducing effects of different CDKI.

[3] = tested on: HT1080-derived reporter cell line; assay: Growth inhibition and cell death in HT1080-derived reporter cell line; assay type: cell-based, human; settings: cell death detected microscopically by cell detachment
Text: The combination of p21 and SNX9-class compounds leads to both G1 and G2/M arrest, at the levels expected for the combined effects of p21 and SNX9 (FIG. 6).

[4] = molecular target: T1, CDK6/cyclinD3 (h) (Homo sapiens, UniProt Q00534); assay: Cyclin/CDK kinase assay (Upstate), CDK6/cyclinD3; assay type: biochemical; settings: 100 μM, re-tested at 20 and 40 μM (SNX9, SNX2) or 10 and 20 μM (SNX9-1, SNX14)
T1 construct: purchased Upstate Biotechnology, Inc
Method: (§1) To test the above hypothesis, we determined whether several CDKI pathway inhibitors, including two SNX9 class compounds (SNX9 and SNX9-1), two compounds of a different structural class (SNX14 and SNX2) and another unrelated inhibitor (SNX35), inhibit the kinase activity of different complexes formed in vitro by purified cyclin/CDK complexes. This analysis was carried out as a service by Upstate Biotechnology, Inc.
In a final reaction volume of 25 μl, CDK6/cyclinD3 (h) (5-10 mU) is incubated with 8 mM MOPS pH 7.0, 0.2 mm EDTA, 0.1 mg/ml H1, 10 mM MgAcetate and [γ-33P-ATP] (specific activity approx. 500 cpm/pmol, 200 μM concentration). The reaction is initiated by the addition of the MgATP mix. After incubation for 40 minutes at room temperature, the reaction is stopped by the addition of 5 μl of a 3% phosphoric acid solution. 10 μl of the reaction is then spotted onto a P30 filtermat and washed three times for 5 minutes in 75 mM phosphoric acid and once in methanol prior to drying and scintillation counting.
(§2) At the first step, all the compounds were tested at 100 μM concentration. […] For SNX14 and SNX2, the relative efficacy of inhibition was CDK1>CDK2˜CDK3>CDK6. For SNX9 and SNX9-1, the order was CDK3>CDK1>CDK2>CDK6 (FIG. 12).

[5] = tested on: cyclin/CDK complexes (CDK1, CDK2, CDK3, CDK6); assay: Cyclin/CDK kinase assays, comparison over all complexes; assay type: biochemical, human
Method: as §1, §2

[6] = tested on: isogenic human fibroblast cell lines (untransformed, partially transformed, fully transformed); assay: Dose-dependent growth inhibition of three isogenic human fibroblast cell lines with increasing neoplastic transformation; assay type: cell-based; settings: 3-day assay, Hoechst 33342
Text: To determine if tumor-specific growth inhibitory activity of SNX9 class compounds could be due to the inhibition of a specific CDK, we took advantage of the availability of selective inhibitors for some of the CDK proteins. Among these enzymes, CDK1, CDK2 and CDK4/CDK6 (the latter two CDKs are closely related to each other and interact with the same class of cyclins), have been used as targets for developing specific inhibitors, with potential anticancer activity. In contrast, CDK3 has not been used as a target for developing selective inhibitors. We have obtained commercially available selective inhibitors of CDK1 (CGP74514A) (Calbiochem Cat. No. 217696), CDK2 (CVT-313) (Calbiochem Cat. No. 238803), and CDK4 (NSC 625987) (Calbiochem Cat. No. 219477), and tested them, along with a broad-specificity CDK inhibitor flavopiridol, and with SNX14, SNX9 and SNX9-1, for growth inhibition of normal and transformed fibroblasts.
This analysis was done using a set of three isogenic human fibroblast cell lines with increasing degrees of neoplastic transformation (immortal but untransformed, partially transformed, and fully transformed).

[7] = tested on: WI-38 and BJ-EN fibroblasts vs HT1080, HCT116, C33-A, Calu-6; assay: 3-day growth inhibition assay (Hoechst 33342), normal fibroblasts vs tumor cell lines; settings: 3-day assay, WI-38, BJ-EN vs HT1080, HCT116, C33-A
Method: The assays were carried out in 96-well plates, in triplicates; the plated cell numbers for each cell line were determined in preliminary experiments to assure exponential growth over the 3-day period of the assay. The cell numbers were measured by staining DNA of attached cells with Hoechst 33342, and the results for each dose were expressed as the decrease in cell number relative to untreated cells. For some of the tumor/normal cell line combinations, the assays were repeated using CellTiter-Glo viability assay (Promega), with the same results.

T1 sequence (Q00534 whole entry): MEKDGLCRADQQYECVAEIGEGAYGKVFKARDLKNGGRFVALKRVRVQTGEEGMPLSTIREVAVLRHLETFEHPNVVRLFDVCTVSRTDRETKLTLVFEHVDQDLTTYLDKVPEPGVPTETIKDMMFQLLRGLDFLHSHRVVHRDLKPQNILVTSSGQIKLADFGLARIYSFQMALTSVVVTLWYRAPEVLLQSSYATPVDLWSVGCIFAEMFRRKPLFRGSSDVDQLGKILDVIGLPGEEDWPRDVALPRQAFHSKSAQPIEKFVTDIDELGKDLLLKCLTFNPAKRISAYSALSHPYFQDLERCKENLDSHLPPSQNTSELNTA
T1 sequence (P30281 whole entry partner): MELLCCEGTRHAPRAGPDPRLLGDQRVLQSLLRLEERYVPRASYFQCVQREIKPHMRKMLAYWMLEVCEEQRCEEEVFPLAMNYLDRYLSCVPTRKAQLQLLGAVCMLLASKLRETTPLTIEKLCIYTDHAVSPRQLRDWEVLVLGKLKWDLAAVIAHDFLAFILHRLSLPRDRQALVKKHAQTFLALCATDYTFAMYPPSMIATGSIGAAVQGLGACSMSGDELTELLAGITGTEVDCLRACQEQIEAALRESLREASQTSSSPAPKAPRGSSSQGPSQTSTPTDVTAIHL

SMILES | anti-CDKI pathway activity in the reporter assay (induction of CMV-GFP expression in response to p21) [1] | induction of CDKI-responsive endogenous genes by p21 (ratio of RNA levels with and without IPTG) [2] | growth inhibition of the HT1080-derived reporter cell line [3] | kinase activity of CDK6 [4] | relative efficacy of inhibition (order of CDKs) [5] | selectivity of growth inhibition for transformed cell lines relative to immortal but untransformed fibroblasts [6] | tumor selectivity of growth inhibition, tumor cells vs normal fibroblasts [7] | normalized GFP expression without p21 induction ([1]; in the absence of IPTG) | normalized GFP expression with p21 induction ([1]; in the presence of IPTG, three days of p21 induction)
NCCc1c[nH]c2c(Cl)cc(Cl)cc12 [SNX9-1] | showed anti-CDKI pathway activity in the reporter assay | partially inhibit the induction of all the tested genes | associated with the induction of both cell death (as detected microscopically by cell detachment) and cell cycle arrest | inhibited the kinase activities | CDK3>CDK1>CDK2>CDK6 | pronounced selectivity for partially transformed or fully transformed cell lines | inhibited all the tumor cells to a greater extent than normal fibroblasts |  | 
Cc1[nH]c2c(Cl)cccc2c1CCN [SNX9] | showed anti-CDKI pathway activity in the reporter assay | partially inhibit the induction of all the tested genes | associated with the induction of both cell death (as detected microscopically by cell detachment) and cell cycle arrest | inhibited the kinase activities | CDK3>CDK1>CDK2>CDK6 | pronounced selectivity for partially transformed or fully transformed cell lines | inhibited all the tumor cells to a greater extent than normal fibroblasts | does not inhibit promoter function when p21 is not induced | pronounced inhibition of transcription by p21
